Values after ≈ are worked out from the molar mass of the structure shown. Like-named read-outs stand apart in the source and are kept apart here.
How the values were obtained:
[1] = system: S. aureus SA0422; experiment: microbe, parasite or virus in culture; conditions: Staphylococcus aureus
[2] = system: S. aureus SA0085; experiment: microbe, parasite or virus in culture; conditions: Staphylococcus aureus
[3] = system: S. aureus ATCC 29213; experiment: microbe, parasite or virus in culture; conditions: Staphylococcus aureus
[4] = system: S. aureus SA0736; experiment: microbe, parasite or virus in culture; conditions: Staphylococcus aureus
[5] = system: S. aureus SA0077; experiment: microbe, parasite or virus in culture; conditions: Staphylococcus aureus
[6] = system: S. aureus SA0077
[7] = system: S. aureus SA0422
[8] = system: S. aureus RN4220
[9] = system: S. aureus SA0085
[10] = system: S. aureus SA0736
[11] = system: S. aureus ATCC 29213
[12] = ATCC29213, read-out: MIC values
[13] = SA0736, read-out: MIC values, Table S1: SA0736 DAP-W (40 passages on daptomycin, white colonies)
[14] = SA0736, read-out: MIC values, Table S1: SA0736 VAN (derivative after 40 passages on vancomycin)
[15] = SA0077, read-out: MIC values, Table S1: SA0077 VAN (derivative after 40 passages on vancomycin)
[16] = SA0077, read-out: MIC values, Table S1: SA0077 Abf (passages on antibiotic-free media)
[17] = SA0422, read-out: MIC values, Table S1: SA0422 DAP (derivative after 40 passages on daptomycin)
[18] = SA0085, read-out: MIC values, Table S1: SA0085 VAN (derivative after 40 passages on vancomycin)
[19] = SA0077, read-out: MIC values, Table S1: SA0077 DAP (derivative after 40 passages on daptomycin)
[20] = ATCC29213, read-out: MIC values, Table S1: ATCC 29213 DAP (derivative after 40 passages on daptomycin)
[21] = ATCC29213, read-out: MIC values, Table S1: ATCC 29213 VAN (derivative after 40 passages on vancomycin)

COc1c(N2C[C@@H]3CCCN[C@@H]3C2)c(F)cc2c(=O)c(C(=O)O)cn(C3CC3)c12 [Moxifloxacin]
MIC ([1]; SA0422, read-out: MIC values): 2 µg/mL (≈ 4.98 µM) | MIC ([2]; SA0085, read-out: MIC values): 8 µg/mL (≈ 19.9 µM) | MIC [3, 12]: 0.125 µg/mL (≈ 0.311 µM) | MIC ([4]; SA0736, read-out: MIC values): 2 µg/mL (≈ 4.98 µM) | MIC [4, 13]: 4 µg/mL (≈ 9.96 µM) | MIC [4, 14]: 4 µg/mL (≈ 9.96 µM) | MIC ([5]; SA0077, read-out: MIC values): 2 µg/mL (≈ 4.98 µM) | MIC [5, 15]: 4 µg/mL (≈ 9.96 µM)

C/C(=C\C(=O)OCCCCCCCCC(=O)O)C[C@@H]1OC[C@H](C[C@@H]2O[C@H]2[C@@H](C)[C@H](C)O)[C@@H](O)[C@H]1O [Mupirocin]
MIC ([1]; SA0422, read-out: MIC values): 1 µg/mL (≈ 2 µM) | MIC ([2]; SA0085, read-out: MIC values): 1 µg/mL (≈ 2 µM) | MIC [3, 12]: 1 µg/mL (≈ 2 µM) | MIC ([4]; SA0736, read-out: MIC values): 1 µg/mL (≈ 2 µM) | MIC [4, 13]: 0.5 µg/mL (≈ 0.999 µM) | MIC ([5]; SA0077, read-out: MIC values): 0.5 µg/mL (≈ 0.999 µM) | MIC [5, 16]: 1 µg/mL (≈ 2 µM) | MIC [5, 15]: 1 µg/mL (≈ 2 µM)

CO[C@H]1/C=C/O[C@@]2(C)Oc3c(C)c(O)c4c(O)c(c(/C=N/N5CCN(C)CC5)c(O)c4c3C2=O)NC(=O)/C(C)=C\C=C\[C@H](C)[C@H](O)[C@@H](C)[C@@H](O)[C@@H](C)[C@H](OC(C)=O)[C@@H]1C [Rifampicin]
MIC ([1]; SA0422, read-out: MIC values): 0.004 µg/mL (≈ 0.00486 µM) | MIC ([2]; SA0085, read-out: MIC values): > 4 µg/mL | MIC [3, 12]: 0.004 µg/mL (≈ 0.00486 µM) | MIC ([4]; SA0736, read-out: MIC values): 0.004 µg/mL (≈ 0.00486 µM) | MIC [4, 14]: 0.016 µg/mL (≈ 0.0194 µM) | MIC ([5]; SA0077, read-out: MIC values): 0.004 µg/mL (≈ 0.00486 µM)

Cn1nnc(-c2ccc(-c3ccc(N4C[C@H](CO)OC4=O)cc3F)cn2)n1 [Tedizolid]
MIC ([1]; SA0422, read-out: MIC values): 0.25 µg/mL (≈ 0.675 µM) | MIC [1, 17]: 0.125 µg/mL (≈ 0.338 µM) | MIC ([2]; SA0085, read-out: MIC values): 0.5 µg/mL (≈ 1.35 µM) | MIC [2, 18]: 0.06 µg/mL (≈ 0.162 µM) | MIC [3, 12]: 0.25 µg/mL (≈ 0.675 µM) | MIC ([4]; SA0736, read-out: MIC values): 0.125 µg/mL (≈ 0.338 µM) | MIC ([5]; SA0077, read-out: MIC values): 0.25 µg/mL (≈ 0.675 µM) | MIC [5, 16]: 0.125 µg/mL (≈ 0.338 µM) | MIC [5, 19]: 0.125 µg/mL (≈ 0.338 µM) | MIC [5, 15]: 0.125 µg/mL (≈ 0.338 µM)

CN(C)[C@@H]1C(O)=C(C(N)=O)C(=O)[C@@]2(O)C(O)=C3C(=O)c4c(O)cccc4[C@@](C)(O)[C@H]3C[C@@H]12 [Tetracycline]
MIC ([1]; SA0422, read-out: MIC values): 0.06 µg/mL (≈ 0.135 µM) | MIC ([1]; SA0422, read-out: MIC values, Table S1: SA0422 VAN (derivative after 40 passages on vancomycin)): 0.125 µg/mL (≈ 0.281 µM) | MIC ([2]; SA0085, read-out: MIC values): 32 µg/mL (≈ 72 µM) | MIC ([2]; SA0085, read-out: MIC values, Table S1: SA0085 DAP (derivative after 40 passages on daptomycin)): 16 µg/mL (≈ 36 µM) | MIC [2, 18]: 0.125 µg/mL (≈ 0.281 µM) | MIC [3, 12]: 0.125 µg/mL (≈ 0.281 µM) | MIC [3, 20]: 0.06 µg/mL (≈ 0.135 µM) | MIC [3, 21]: 0.5 µg/mL (≈ 1.13 µM) | MIC ([4]; SA0736, read-out: MIC values): 16 µg/mL (≈ 36 µM) | MIC ([5]; SA0077, read-out: MIC values): 0.06 µg/mL (≈ 0.135 µM)

CN(C)c1cc(NC(=O)CNC(C)(C)C)c(O)c2c1C[C@H]1C[C@H]3[C@H](N(C)C)C(O)=C(C(N)=O)C(=O)[C@@]3(O)C(O)=C1C2=O [Tigecycline]
MIC ([1]; SA0422, read-out: MIC values): 0.125 µg/mL (≈ 0.213 µM) | MIC [1, 17]: 0.06 µg/mL (≈ 0.102 µM) | MIC ([2]; SA0085, read-out: MIC values): 0.125 µg/mL (≈ 0.213 µM) | MIC [3, 12]: 0.03 µg/mL (≈ 0.0512 µM) | MIC [3, 20]: 0.016 µg/mL (≈ 0.0273 µM) | MIC [3, 21]: 0.06 µg/mL (≈ 0.102 µM) | MIC ([4]; SA0736, read-out: MIC values): 0.06 µg/mL (≈ 0.102 µM) | MIC [4, 14]: 0.125 µg/mL (≈ 0.213 µM) | MIC ([5]; SA0077, read-out: MIC values): 0.25 µg/mL (≈ 0.427 µM) | MIC [5, 16]: 0.06 µg/mL (≈ 0.102 µM) | MIC [5, 19]: 0.06 µg/mL (≈ 0.102 µM) | MIC [5, 15]: 0.06 µg/mL (≈ 0.102 µM)

oritavancin
MIC ([6]; SA0077, selecting agent DAP, passage 5): 2 µg/mL | MIC ([6]; SA0077, selecting agent DAP, passage 20): 4 µg/mL | MIC ([6]; SA0077, selecting agent DAP, passage 40): 4 µg/mL | MIC ([6]; SA0077, selecting agent VAN, passage 0): <0.03 µg/mL | MIC ([6]; SA0077, selecting agent VAN, passage 5): 0.125 µg/mL | MIC ([6]; SA0077, selecting agent VAN, passage 20): 2 µg/mL | MIC ([6]; SA0077, selecting agent VAN, passage 40): 2 µg/mL | MIC values ([6]; Table S1: SA0077 Abf (passages on antibiotic-free media)): 0.06 µg/mL | MIC ([7]; SA0422, selecting agent DAP, passage 5): 0.125 µg/mL | MIC ([7]; SA0422, selecting agent DAP, passage 20): 0.5 µg/mL | MIC ([7]; SA0422, selecting agent DAP, passage 40): 0.5 µg/mL | MIC ([7]; SA0422, selecting agent VAN, passage 0): <0.03 µg/mL | MIC ([7]; SA0422, selecting agent VAN, passage 5): 0.06 µg/mL | MIC ([7]; SA0422, selecting agent VAN, passage 20): 0.25 µg/mL | MIC ([7]; SA0422, selecting agent VAN, passage 40): 0.5 µg/mL | MIC values ([8]; Table S1: RN4220 WT): 0.016 µg/mL | MIC values ([8]; Table S1: RN4220 ∆ (strain with deletion in SACOL1927)): 0.016 µg/mL | MIC ([9]; SA0085, selecting agent DAP, passage 5): <0.03 µg/mL | MIC ([9]; SA0085, selecting agent DAP, passage 20): 0.06 µg/mL | MIC ([9]; SA0085, selecting agent DAP, passage 40): 1 µg/mL | MIC ([9]; SA0085, selecting agent VAN, passage 0): <0.03 µg/mL | MIC ([9]; SA0085, selecting agent VAN, passage 5): 0.06 µg/mL | MIC ([9]; SA0085, selecting agent VAN, passage 20): 2 µg/mL | MIC ([9]; SA0085, selecting agent VAN, passage 40): 1 µg/mL | MIC values ([9]; Table S1: SA0085 Abf (passages on antibiotic-free media)): < 0.03 µg/mL | MIC ([10]; SA0736, selecting agent DAP, passage 5): <0.03 µg/mL | MIC ([10]; SA0736, selecting agent DAP, passage 20): 2 µg/mL | MIC ([10]; SA0736, selecting agent DAP, passage 40Y (yellow colonies)): 4 µg/mL | MIC ([10]; SA0736, selecting agent VAN, passage 0): <0.03 µg/mL | MIC ([10]; SA0736, selecting agent VAN, passage 5): 0.25 µg/mL | MIC ([10]; SA0736, selecting agent VAN, passage 20): 2 µg/mL | MIC ([10]; SA0736, selecting agent VAN, passage 40): 2 µg/mL | MIC values ([10]; Table S1: SA0736 DAP-W (40 passages on daptomycin, white colonies)): 4 µg/mL | MIC values ([10]; Table S1: SA0736 DAP-Y (40 passages on daptomycin, yellow colonies)): 4 µg/mL | MIC ([11]; ATCC 29213, selecting agent DAP, passage 5): 0.06 µg/mL | MIC ([11]; ATCC 29213, selecting agent DAP, passage 20): 0.125 µg/mL | MIC ([11]; ATCC 29213, selecting agent DAP, passage 40): 2 µg/mL | MIC ([11]; ATCC 29213, selecting agent VAN, passage 0): 0.06 µg/mL | MIC ([11]; ATCC 29213, selecting agent VAN, passage 5): 0.06 µg/mL | MIC ([11]; ATCC 29213, selecting agent VAN, passage 20): 0.06 µg/mL | MIC ([11]; ATCC 29213, selecting agent VAN, passage 40): 4 µg/mL

From publication PMC10215302 (Antibiotics, 2023)
